Active and inactive are the calls of the source. The calls are words filed in the database; no cut-off is given here.
Assays:
[1] = Stability of the compound by HPLC analysis; type: physicochemical
[2] = tested on: A2780S; experiment: Cytotoxicity against human A2780S cells at 100 uM; type: functional, cell-based
[3] = tested on: L5178Y; experiment: Cytotoxicity against mouse L5178Y cells at 10 ug/ml; type: functional, cell-based
[4] = tested on: Escherichia coli; experiment: Antibacterial activity against Escherichia coli; type: functional, organism-based
[5] = tested on: Klebsiella pneumoniae; experiment: Antibacterial activity against Klebsiella pneumoniae; type: functional, organism-based
[6] = tested on: Acinetobacter baumannii; experiment: Antibacterial activity against Acinetobacter baumannii; type: functional, organism-based
[7] = tested on: Enterococcus faecium; experiment: Antibacterial activity against Enterococcus faecium; type: functional, organism-based
[8] = tested on: A2780S; experiment: Cytotoxicity against human A2780S cells at 10 ug/ml; type: functional, cell-based
[9] = tested on: Pseudomonas aeruginosa; experiment: Antibacterial activity against Pseudomonas aeruginosa; type: functional, organism-based
[10] = tested on: Mycobacterium tuberculosis; experiment: Antitubercular activity against Mycobacterium tuberculosis H37Rv; type: functional, organism-based
[11] = tested on: L5178Y; experiment: Cytotoxicity against mouse L5178Y cells at 10 uM; type: functional, cell-based
[12] = tested on: Klebsiella aerogenes; experiment: Antibacterial activity against Enterobacter aerogenes; type: functional, organism-based
[13] = tested on: Staphylococcus aureus; experiment: Antibacterial activity against Staphylococcus aureus ATCC 29213; type: functional, organism-based
[14] = tested on: L5178Y; experiment: Cytotoxicity against mouse L5178Y cells at 100 uM; type: functional, cell-based
[15] = tested on: A2780S; experiment: Cytotoxicity against human A2780S cells at 10 uM; type: functional, cell-based

Row | Structure (SMILES) | Stability [1] | Activity [2] | Activity [3] | Activity [4] | Activity [5] | Activity [6] | Activity [7] | Activity [8] | Activity [9] | Activity [10] | Activity [11] | Activity [12] | Activity [13] | Activity [14] | Activity [15]
1 | COc1cc(OC)c2c(c1)[C@@H]([C@@H]1c3cc(C)cc(O)c3C(=O)c3c(OC)cc(O)cc31)c1cc(C)cc(O)c1C2=O | Unstable |  |  |  |  |  |  |  |  |  |  |  |  |  | 
2 | COc1cc(O)c2c(c1)[C@@H]([C@H]1c3cc(O)cc(O)c3C(=O)c3c1cc(C)c(C(=O)OC[C@@H](O)CO)c3O)c1cc(C)cc(O)c1C2=O | Unstable |  |  |  |  |  |  |  |  |  |  |  |  |  | 
3 | Cc1cc2c(c(O)c1C(=O)OC[C@@H](O)CO)C(=O)c1c(O)cc(O)cc1C2=O |  | inactive | inactive | inactive | inactive | inactive | inactive | inactive | inactive | inactive | inactive | inactive | inactive | inactive | inactive
4 | COC(=O)c1cc(C)c(C(=O)OC[C@@H](O)CO)c(OC)c1C(=O)c1c(C)cc(O)cc1O |  |  | inactive |  |  |  |  |  |  | inactive | inactive |  |  | inactive | 
5 | COc1cc(OC)c2c(c1)[C@H]([C@H]1c3cc(C)cc(O)c3C(=O)c3c(OC)cc(O)cc31)c1cc(C)cc(O)c1C2=O | Unstable |  |  |  |  |  |  |  |  |  |  |  |  |  | 
6 | COc1cc(O)c2c(c1)C(C1c3cc(C)cc(O)c3C(=O)c3c(O)cc(OC)cc31)c1cc(C)cc(O)c1C2=O (stereo unspecified) | Unstable |  |  |  |  |  |  |  |  |  |  |  |  |  | 
7 | COc1cc(OC)c2c(c1)C(C1c3cc(O)cc(O)c3C(=O)c3c1cc(C)c(C(=O)OC[C@@H](O)CO)c3O)c1cc(C)cc(O)c1C2=O (stereo partly specified) | Unstable |  |  |  |  |  |  |  |  |  |  |  |  |  | 
8 | Cc1cc(O)c2c(=O)c3c(C(=O)O)cc(O)cc3oc2c1 |  | inactive | inactive | inactive | inactive | inactive | inactive | inactive | inactive | inactive | inactive | inactive | inactive | inactive | inactive
9 | Cc1cc(O)cc(O)c1-c1cc(=O)c2c(O)cc(O)cc2o1 |  | inactive | inactive | inactive | inactive | inactive | inactive | inactive | inactive | inactive | inactive | inactive | inactive | inactive | inactive
10 | COc1cc(O)c2c(c1)[C@@H]([C@@H]1c3cc(O)cc(O)c3C(=O)c3c1cc(C)c(C(=O)OC[C@@H](O)CO)c3O)c1cc(C)cc(O)c1C2=O | Unstable |  |  |  |  |  |  |  |  |  |  |  |  |  | 
11 | COc1cc(O)cc2c1C(=O)c1c(O)cc(C)cc1C2=O |  | inactive | inactive | inactive | inactive | inactive | inactive | inactive | inactive | inactive | inactive | inactive | inactive | inactive | inactive
12 | Cc1cc2cc(O)cc(O)c2c2oc(=O)cc(O)c12 |  | inactive | inactive | inactive | inactive | inactive | inactive | inactive | inactive | inactive | inactive | inactive | inactive | inactive | inactive
13 | Cc1cc(O)c2c(c1)C(=O)c1cc(O)cc(O)c1C2=O |  | inactive | inactive | inactive | inactive | inactive | inactive | inactive | inactive | inactive | inactive | inactive | inactive | inactive | inactive
14 | COC(=O)c1cc(C)c(C(=O)OC[C@@H](O)CO)c2oc3cc(O)cc(O)c3c(=O)c12 |  |  | inactive |  |  |  |  |  |  | inactive | inactive |  |  | inactive | 
15 | COc1cc(OC)c2c(c1)C(C1c3cc(C)cc(O)c3C(=O)c3c(OC)cc(OC)cc31)c1cc(C)cc(O)c1C2=O (stereo unspecified) | Unstable |  |  |  |  |  |  |  |  |  |  |  |  |  | 
16 | COc1cc(OC)c2c(c1)C(=O)c1cc(C)cc(O)c1C2=O |  | inactive | inactive |  |  |  |  | inactive |  | inactive | inactive |  |  | inactive | inactive
17 | COc1cc(C(=O)O)c2c(=O)c3c(O)cc(C)cc3oc2c1 |  | inactive | inactive | inactive | inactive | inactive | inactive | inactive | inactive | inactive | inactive | inactive | inactive | inactive | inactive
18 | COC(=O)c1cc(O)cc(O)c1C(=O)c1c(O)cc(C)cc1O |  | inactive | inactive | inactive | inactive | inactive | inactive | inactive | inactive | inactive | inactive | inactive | inactive | inactive | inactive
19 | COC(=O)c1cc(O)cc(OC)c1C(=O)c1c(O)cc(C)cc1O |  | inactive | inactive | inactive | inactive | inactive | inactive | inactive | inactive | inactive | inactive | inactive | inactive | inactive | inactive
20 | COC(=O)c1cc(OC)cc(OC)c1C(=O)c1c(O)cc(C)cc1O |  | inactive | inactive | inactive | inactive | inactive | inactive | inactive | inactive | inactive | inactive | inactive | inactive | inactive | inactive
21 | Cc1cc(=O)c2c(C)cc3cc(O)cc(O)c3c2o1 |  | inactive | inactive | inactive | inactive | inactive | inactive | inactive | inactive | inactive | inactive | inactive | inactive | inactive | inactive

— ChEMBL document CHEMBL4396952, “Xanthone, benzophenone and bianthrone derivatives from the hypersaline lake-derived fungus Aspergillus wentii” (Bioorg Med Chem, 2019)
